# Data as given in article PMC5679629, “Flavin-containing monooxygenase 3 (FMO3) role in busulphan metabolic pathway” (PLoS ONE, 2017).
# Experiments:
# Test in all cases: THT disappearance with recombinant cDNA-expressed enzyme microsomes
# Type in all cases: in vitro ADME
# FMO3 = target: T1, FMO3 (Homo sapiens, UniProt P31513); details: 25μM THT, 0.35mg protein/mL
# T1 construct: purchased BD Biosciences; host or cells: baculovirus infected insect cells
# T1 sequence (P31513 1-532): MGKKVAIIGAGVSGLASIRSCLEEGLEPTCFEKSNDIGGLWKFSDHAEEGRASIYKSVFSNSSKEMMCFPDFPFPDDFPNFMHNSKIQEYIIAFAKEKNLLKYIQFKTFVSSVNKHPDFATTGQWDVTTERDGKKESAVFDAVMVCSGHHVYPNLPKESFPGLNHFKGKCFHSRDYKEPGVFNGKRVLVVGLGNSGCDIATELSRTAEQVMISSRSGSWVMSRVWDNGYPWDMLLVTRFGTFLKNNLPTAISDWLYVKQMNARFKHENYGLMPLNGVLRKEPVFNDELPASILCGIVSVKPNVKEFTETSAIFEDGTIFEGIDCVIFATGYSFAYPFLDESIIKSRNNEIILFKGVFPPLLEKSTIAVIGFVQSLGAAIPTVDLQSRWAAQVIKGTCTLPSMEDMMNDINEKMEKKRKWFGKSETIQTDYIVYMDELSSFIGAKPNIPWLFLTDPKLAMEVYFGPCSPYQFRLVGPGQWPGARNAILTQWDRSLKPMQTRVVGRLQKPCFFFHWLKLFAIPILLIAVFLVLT
# Procedure: (§1) To identify the enzymes involved in Bu metabolism, 11 microsomal batches (BD Biosciences, Stockholm, Sweden), each containing a separate cDNA-expressed enzyme, were incubated with 25μM THT. The microsomes contained FMO3, CYP1A1, CYP1A2, CYP2B6, CYP2C8, CYP2C9, CYP2C19, CYP2D6, CYP2E1, CYP3A4 or CYP4A11. Time curves (0, 5, 15, 30 and 60min) were performed at a concentration of 0.35mg protein /mL for FMO3 and 35pmol CYP/mL for the CYP enzymes. The recombinant enzymes were produced from human cDNA expressing each of them using baculovirus expression system. Baculovirus infected insect cells were used to prepare these microsomes.
# (§2) Incubations were performed in triplicate and negative controls (excluding NADPH, microsomes, THT or by terminating the incubations before the addition of NADPH) were run in parallel.
# (§3) To measure THT and the secondary metabolite, sulfolane, the reactions were terminated by adding dichloromethane. Samples (180μL) were added to 10μM nicotine (20μL, Merck, Hoherbrunn, Germany), used as an internal standard, before extraction. The matrix was extracted by liquid-liquid extraction with dichloromethane (equal volumes, 200μL) after 30 sec of high speed vortexing. After extraction and centrifugation at 16000 g for 10 min, the organic phase was transferred into GC-MS tubes. […] Samples (180μL) were added to 10 μM of 3-methylsulfolane (20μL, TCI, Tokyo, Japan), used as an internal standard. The matrix was lyophilized (< 1 mbar at 40°C under N2 stream) to dryness, the residue was dissolved in 10 μL water and 200 μL of ethyl acetate was added for extraction. Samples were vortexed for 30 sec at high speed and centrifuged at 16000 g for 10 min. The organic phase was transferred to GC-MS tubes.
# (§4) Concentrations of THT and its metabolites were measured using GC-MS [18] after validation for use with microsomal incubations according to the international guidelines.
# CYP2C9 = target: T2, CYP2C9 (Homo sapiens, UniProt P11712); details: 25μM THT, 35pmol CYP/mL
# T2 construct: purchased BD Biosciences; host or cells: baculovirus infected insect cells
# T2 sequence (P11712 whole entry): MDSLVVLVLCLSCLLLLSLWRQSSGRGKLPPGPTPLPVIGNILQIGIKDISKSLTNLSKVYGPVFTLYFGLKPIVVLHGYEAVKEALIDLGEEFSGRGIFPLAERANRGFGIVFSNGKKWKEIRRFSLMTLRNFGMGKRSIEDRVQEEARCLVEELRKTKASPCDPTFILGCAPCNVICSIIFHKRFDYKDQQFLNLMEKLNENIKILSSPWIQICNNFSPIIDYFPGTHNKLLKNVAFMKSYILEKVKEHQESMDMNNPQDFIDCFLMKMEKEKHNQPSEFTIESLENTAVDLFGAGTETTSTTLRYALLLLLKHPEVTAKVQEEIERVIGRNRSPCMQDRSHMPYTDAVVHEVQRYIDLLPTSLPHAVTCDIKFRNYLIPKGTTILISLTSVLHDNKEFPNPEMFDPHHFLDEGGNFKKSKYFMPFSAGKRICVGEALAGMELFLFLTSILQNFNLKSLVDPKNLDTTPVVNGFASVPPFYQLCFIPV
# Procedure: as §1, §2, §3, §4
# CYP2D6 = target: T3, CYP2D6 (Homo sapiens, UniProt P10635); details: 25μM THT, 35pmol CYP/mL
# T3 construct: purchased BD Biosciences; host or cells: baculovirus infected insect cells
# T3 sequence (P10635 whole entry): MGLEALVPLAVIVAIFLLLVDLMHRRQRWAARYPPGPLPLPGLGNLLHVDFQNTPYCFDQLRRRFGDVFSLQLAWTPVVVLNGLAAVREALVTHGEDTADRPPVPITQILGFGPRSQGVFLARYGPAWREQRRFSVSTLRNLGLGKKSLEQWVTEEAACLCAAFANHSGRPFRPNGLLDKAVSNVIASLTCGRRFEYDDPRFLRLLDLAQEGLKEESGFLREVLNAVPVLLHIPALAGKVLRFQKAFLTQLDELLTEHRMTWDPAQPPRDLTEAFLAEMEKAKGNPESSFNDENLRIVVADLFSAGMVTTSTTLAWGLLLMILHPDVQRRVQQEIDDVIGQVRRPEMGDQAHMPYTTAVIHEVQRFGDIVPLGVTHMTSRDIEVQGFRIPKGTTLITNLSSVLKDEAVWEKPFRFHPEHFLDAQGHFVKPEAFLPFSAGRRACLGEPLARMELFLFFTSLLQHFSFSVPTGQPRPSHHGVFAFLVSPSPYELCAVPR
# Procedure: as §1, §2, §3, §4
# CYP2C19 = target: T4, CYP2C19 (Homo sapiens, UniProt P33261); details: 25μM THT, 35pmol CYP/mL
# T4 construct: purchased BD Biosciences; host or cells: baculovirus infected insect cells
# T4 sequence (P33261 whole entry): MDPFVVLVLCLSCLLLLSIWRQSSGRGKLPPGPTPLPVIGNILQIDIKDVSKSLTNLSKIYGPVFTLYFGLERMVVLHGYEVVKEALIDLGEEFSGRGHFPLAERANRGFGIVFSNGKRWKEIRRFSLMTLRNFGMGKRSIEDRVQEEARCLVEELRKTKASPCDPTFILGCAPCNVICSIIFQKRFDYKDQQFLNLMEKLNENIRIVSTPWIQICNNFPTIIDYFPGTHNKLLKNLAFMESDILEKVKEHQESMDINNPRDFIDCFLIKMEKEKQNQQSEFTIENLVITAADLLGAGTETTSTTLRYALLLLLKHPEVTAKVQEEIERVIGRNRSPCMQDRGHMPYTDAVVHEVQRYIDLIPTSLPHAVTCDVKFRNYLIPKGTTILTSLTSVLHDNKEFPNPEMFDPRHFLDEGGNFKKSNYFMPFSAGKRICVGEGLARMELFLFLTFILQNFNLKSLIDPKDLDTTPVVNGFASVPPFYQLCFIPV
# Procedure: as §1, §2, §3, §4
# CYP1A2 = target: T5, CYP1A2 (Homo sapiens, UniProt P05177); details: 25μM THT, 35pmol CYP/mL
# T5 construct: purchased BD Biosciences; host or cells: baculovirus infected insect cells
# T5 sequence (P05177 1-516): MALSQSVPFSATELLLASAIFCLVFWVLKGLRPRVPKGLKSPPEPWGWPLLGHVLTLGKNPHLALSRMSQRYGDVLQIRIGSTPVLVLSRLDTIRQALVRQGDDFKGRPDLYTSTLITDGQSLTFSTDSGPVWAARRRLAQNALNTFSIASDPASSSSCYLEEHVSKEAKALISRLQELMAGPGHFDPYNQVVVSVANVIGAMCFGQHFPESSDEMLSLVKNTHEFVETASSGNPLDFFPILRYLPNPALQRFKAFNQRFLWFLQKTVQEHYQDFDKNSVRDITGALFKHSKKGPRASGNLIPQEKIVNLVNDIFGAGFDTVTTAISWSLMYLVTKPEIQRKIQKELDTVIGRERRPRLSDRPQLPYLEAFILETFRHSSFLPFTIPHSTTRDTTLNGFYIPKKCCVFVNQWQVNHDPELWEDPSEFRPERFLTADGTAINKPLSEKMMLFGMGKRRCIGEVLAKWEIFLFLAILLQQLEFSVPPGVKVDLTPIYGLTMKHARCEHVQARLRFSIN
# Procedure: as §1, §2, §3, §4
# CYP2B6 = target: T6, CYP2B6 (Homo sapiens, UniProt P20813); details: 25μM THT, 35pmol CYP/mL
# T6 construct: purchased BD Biosciences; host or cells: baculovirus infected insect cells
# T6 sequence (P20813 1-491): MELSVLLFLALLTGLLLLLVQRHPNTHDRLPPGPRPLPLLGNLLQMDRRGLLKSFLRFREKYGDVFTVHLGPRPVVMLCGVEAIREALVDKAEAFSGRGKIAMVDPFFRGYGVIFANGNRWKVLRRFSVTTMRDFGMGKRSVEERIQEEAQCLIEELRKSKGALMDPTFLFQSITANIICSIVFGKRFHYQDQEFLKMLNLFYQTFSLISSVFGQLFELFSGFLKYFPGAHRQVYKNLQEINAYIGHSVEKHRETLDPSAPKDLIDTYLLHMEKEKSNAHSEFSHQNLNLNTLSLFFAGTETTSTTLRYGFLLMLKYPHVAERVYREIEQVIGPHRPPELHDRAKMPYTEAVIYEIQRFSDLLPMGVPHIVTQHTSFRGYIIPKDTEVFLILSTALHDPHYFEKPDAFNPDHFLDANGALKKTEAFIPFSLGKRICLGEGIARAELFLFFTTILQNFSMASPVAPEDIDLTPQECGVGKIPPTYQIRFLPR
# Procedure: as §1, §2, §3, §4
smiles,measurement,setting,value
"C1CCSC1 [THT, tetrahydrothiophene]",THT disappeared (metabolized) by recombinant FMO3,FMO3; within 15min,96%
same,CLint value,FMO3; FMO3,709.14 μL/min/mg protein
same,v0,FMO3; FMO3,6.87 nmol/min/mL
same,v0,CYP2C9,1.64 nmol/min/mL
same,v0/CYP,CYP2C9,0.05 nmol/min/pmol CYP
same,v0,CYP2D6,2.24 nmol/min/mL
same,v0/CYP,CYP2D6,0.06 nmol/min/pmol CYP
same,v0,CYP2C19,1.51 nmol/min/mL
same,v0/CYP,CYP2C19,0.04 nmol/min/pmol CYP
same,v0,CYP1A2,1.24 nmol/min/mL
same,v0/CYP,CYP1A2,0.04 nmol/min/pmol CYP
same,v0,CYP2B6,1.76 nmol/min/mL
same,v0/CYP,CYP2B6,0.05 nmol/min/pmol CYP
